Source: article PMC6409085, “Three odorant-binding proteins are involved in the behavioral response of Sogatella furcifera to rice plant volatiles” (PeerJ, 2019)
pIC50: −log10 of the molar value. Where “and” joins values, the source holds several entries; their conditions need not be identical. Equal values may be shown once.

Key:
SfurOBP1 = SfurOBP1 (Sogatella furcifera, UniProt V5T8N5); assay: biochemical; format: binding; conditions: for Fluorescence competitive binding assay, fluorescence intensity: OBP1, three replicate columns
How it was run: (§1)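 In 50 mM Tris-HCl pH 7.4, odorants displace 1-NPN (2.0 µM) from 2.0 µM protein. Emission at 390–490 nm under 337 nm excitation is measured 2 min after competitor addition, in triplicate. Ki is obtained from IC50 and the 1-NPN dissociation constant.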

SfurOBP3 = SfurOBP3 (Sogatella furcifera, UniProt V5T818); assay: biochemical; format: binding; conditions: for Fluorescence competitive binding assay, fluorescence intensity: OBP3, three replicate columns
How it was run: as §1

SfurOBP2 = SfurOBP2 (Sogatella furcifera, UniProt V5T759); assay: biochemical; format: binding
How it was run: as §1

SfurOBP11 = SfurOBP11 (Sogatella furcifera, UniProt V5T6E3); assay: biochemical; format: binding
How it was run: as §1

S. furcifera adults = assay: Y-tube olfactometer behavioral trials; format: in vivo, Sogatella furcifera; conditions: odorant 50 µL/L vs hexane
How it was run: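 Single S. furcifera adults (2 days post-emergence, starved 0.5 h) chose between odorant (100 µL of 50 µL/L on filter paper) and hexane control in a glass Y-tube, charcoal-filtered humidified air 300 mL/min per arm, 25 ± 1 °C, 50% RH. Choice scored if insect passed half an arm and stayed >1 min within 10 min; 45 insects per compound, chi-squared test.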

Chain of SfurOBP11 (V5T6E3 entry or part of it): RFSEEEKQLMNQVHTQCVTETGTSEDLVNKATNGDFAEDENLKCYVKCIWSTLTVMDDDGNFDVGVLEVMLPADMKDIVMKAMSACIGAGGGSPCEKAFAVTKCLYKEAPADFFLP
Chain of SfurOBP2 (V5T759 entry or part of it): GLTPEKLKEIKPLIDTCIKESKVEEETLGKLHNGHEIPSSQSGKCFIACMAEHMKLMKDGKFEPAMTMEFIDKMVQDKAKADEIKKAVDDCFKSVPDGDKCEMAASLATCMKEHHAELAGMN
Chain of SfurOBP1 (V5T8N5 entry or part of it): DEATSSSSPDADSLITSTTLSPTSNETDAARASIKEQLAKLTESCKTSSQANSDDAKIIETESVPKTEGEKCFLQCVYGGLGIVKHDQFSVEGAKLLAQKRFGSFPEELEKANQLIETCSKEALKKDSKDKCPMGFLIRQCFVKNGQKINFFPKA
Chain of SfurOBP3 (V5T818 entry or part of it): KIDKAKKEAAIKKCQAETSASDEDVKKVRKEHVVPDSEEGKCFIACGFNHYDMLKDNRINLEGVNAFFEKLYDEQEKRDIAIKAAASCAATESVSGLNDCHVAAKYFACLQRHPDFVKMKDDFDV

CCCCCC(C)=O [2-heptanone]
Fluorescence competitive binding assay, fluorescence intensity (SfurOBP1; ligand concentration 2 (μM)): 5565 and 5797 and 5680
Fluorescence competitive binding assay, fluorescence intensity (SfurOBP1; ligand concentration 4 (μM)): 6133 and 7369 and 7766
Fluorescence competitive binding assay, fluorescence intensity (SfurOBP1; ligand concentration 6 (μM)): 7319 and 6450 and 6758
Fluorescence competitive binding assay, fluorescence intensity (SfurOBP1; ligand concentration 8 (μM)): 6247 and 6677 and 6608
Fluorescence competitive binding assay, fluorescence intensity (SfurOBP1; ligand concentration 10 (μM)): 5974 and 6580 and 6200
Fluorescence competitive binding assay, fluorescence intensity (SfurOBP1; ligand concentration 12 (μM)): 6115 and 6844 and 6487
Fluorescence competitive binding assay, fluorescence intensity (SfurOBP1; ligand concentration 14 (μM)): 7227 and 6939 and 7296
Fluorescence competitive binding assay, fluorescence intensity (SfurOBP1; ligand concentration 16 (μM)): 7221 and 7791 and 6651
Fluorescence competitive binding assay, fluorescence intensity (SfurOBP1; ligand concentration 18 (μM)): 6902 and 6623 and 6730
Fluorescence competitive binding assay, fluorescence intensity (SfurOBP1; ligand concentration 20 (μM)): 6454 and 6429 and 6479
pIC50 (SfurOBP1; SfurOBP1, protein and 1-NPN both 2.0 µM, competitor 2-20 µM, read-out: IC50): < 4.70
Fluorescence competitive binding assay, fluorescence intensity (SfurOBP3; ligand concentration 2): 37101 and 37506 and 37304
Fluorescence competitive binding assay, fluorescence intensity (SfurOBP3; ligand concentration 4): 36141 and 37871 and 37816
Fluorescence competitive binding assay, fluorescence intensity (SfurOBP3; ligand concentration 6): 36419 and 39158 and 37789
Fluorescence competitive binding assay, fluorescence intensity (SfurOBP3; ligand concentration 8): 33665 and 34797 and 35932
Fluorescence competitive binding assay, fluorescence intensity (SfurOBP3; ligand concentration 10): 33290 and 35900 and 35256
Fluorescence competitive binding assay, fluorescence intensity (SfurOBP3; ligand concentration 12): 29962 and 33001 and 33859
Fluorescence competitive binding assay, fluorescence intensity (SfurOBP3; ligand concentration 14): 28260 and 30707 and 32190
Fluorescence competitive binding assay, fluorescence intensity (SfurOBP3; ligand concentration 16): 28891 and 29426 and 29159
Fluorescence competitive binding assay, fluorescence intensity (SfurOBP3; ligand concentration 18): 26989 and 27471 and 26506
Fluorescence competitive binding assay, fluorescence intensity (SfurOBP3; ligand concentration 20): 26994 and 26547 and 27440
binding affinity to SfurOBP3 (in words) (SfurOBP3; SfurOBP3): high binding affinities
pIC50 (SfurOBP3; SfurOBP3, protein and 1-NPN both 2.0 µM, competitor 2-20 µM, read-out: IC50): 4.81
pIC50 (SfurOBP2; SfurOBP2, protein and 1-NPN both 2.0 µM, competitor 2-20 µM, read-out: IC50): < 4.70
Fluorescence competitive binding assay, OBP2 (raw fluorescence reading) (SfurOBP2; ligand concentration 2 (unit not given), replicate column 1 of 3): 19792
Fluorescence competitive binding assay, OBP2 (raw fluorescence reading) (SfurOBP2; ligand concentration 2 (unit not given), replicate column 2 of 3): 17859
Fluorescence competitive binding assay, OBP2 (raw fluorescence reading) (SfurOBP2; ligand concentration 2 (unit not given), replicate column 3 of 3): 20079
Fluorescence competitive binding assay, OBP2 (raw fluorescence reading) (SfurOBP2; ligand concentration 4 (unit not given), replicate column 1 of 3): 17338
Fluorescence competitive binding assay, OBP2 (raw fluorescence reading) (SfurOBP2; ligand concentration 4 (unit not given), replicate column 2 of 3): 18012
Fluorescence competitive binding assay, OBP2 (raw fluorescence reading) (SfurOBP2; ligand concentration 4 (unit not given), replicate column 3 of 3): 20388
Fluorescence competitive binding assay, OBP2 (raw fluorescence reading) (SfurOBP2; ligand concentration 6 (unit not given), replicate column 1 of 3): 17013
Fluorescence competitive binding assay, OBP2 (raw fluorescence reading) (SfurOBP2; ligand concentration 6 (unit not given), replicate column 2 of 3): 18530
Fluorescence competitive binding assay, OBP2 (raw fluorescence reading) (SfurOBP2; ligand concentration 6 (unit not given), replicate column 3 of 3): 19352
Fluorescence competitive binding assay, OBP2 (raw fluorescence reading) (SfurOBP2; ligand concentration 8 (unit not given), replicate column 1 of 3): 15771
Fluorescence competitive binding assay, OBP2 (raw fluorescence reading) (SfurOBP2; ligand concentration 8 (unit not given), replicate column 2 of 3): 11853
Fluorescence competitive binding assay, OBP2 (raw fluorescence reading) (SfurOBP2; ligand concentration 8 (unit not given), replicate column 3 of 3): 17932
Fluorescence competitive binding assay, OBP2 (raw fluorescence reading) (SfurOBP2; ligand concentration 10 (unit not given), replicate column 1 of 3): 15741
Fluorescence competitive binding assay, OBP2 (raw fluorescence reading) (SfurOBP2; ligand concentration 10 (unit not given), replicate column 2 of 3): 17236
Fluorescence competitive binding assay, OBP2 (raw fluorescence reading) (SfurOBP2; ligand concentration 10 (unit not given), replicate column 3 of 3): 17972
Fluorescence competitive binding assay, OBP2 (raw fluorescence reading) (SfurOBP2; ligand concentration 12 (unit not given), replicate column 1 of 3): 14577
Fluorescence competitive binding assay, OBP2 (raw fluorescence reading) (SfurOBP2; ligand concentration 12 (unit not given), replicate column 2 of 3): 14468
Fluorescence competitive binding assay, OBP2 (raw fluorescence reading) (SfurOBP2; ligand concentration 12 (unit not given), replicate column 3 of 3): 15583
Fluorescence competitive binding assay, OBP2 (raw fluorescence reading) (SfurOBP2; ligand concentration 14 (unit not given), replicate column 1 of 3): 14055
Fluorescence competitive binding assay, OBP2 (raw fluorescence reading) (SfurOBP2; ligand concentration 14 (unit not given), replicate column 2 of 3): 13126
Fluorescence competitive binding assay, OBP2 (raw fluorescence reading) (SfurOBP2; ligand concentration 14 (unit not given), replicate column 3 of 3): 14409
Fluorescence competitive binding assay, OBP2 (raw fluorescence reading) (SfurOBP2; ligand concentration 16 (unit not given), replicate column 1 of 3): 12777
Fluorescence competitive binding assay, OBP2 (raw fluorescence reading) (SfurOBP2; ligand concentration 16 (unit not given), replicate column 2 of 3): 13653
Fluorescence competitive binding assay, OBP2 (raw fluorescence reading) (SfurOBP2; ligand concentration 16 (unit not given), replicate column 3 of 3): 13817
Fluorescence competitive binding assay, OBP2 (raw fluorescence reading) (SfurOBP2; ligand concentration 18 (unit not given), replicate column 1 of 3): 17551
Fluorescence competitive binding assay, OBP2 (raw fluorescence reading) (SfurOBP2; ligand concentration 18 (unit not given), replicate column 2 of 3): 16085
Fluorescence competitive binding assay, OBP2 (raw fluorescence reading) (SfurOBP2; ligand concentration 18 (unit not given), replicate column 3 of 3): 21813
Fluorescence competitive binding assay, OBP2 (raw fluorescence reading) (SfurOBP2; ligand concentration 20 (unit not given), replicate column 1 of 3): 14165
Fluorescence competitive binding assay, OBP2 (raw fluorescence reading) (SfurOBP2; ligand concentration 20 (unit not given), replicate column 2 of 3): 14167
Fluorescence competitive binding assay, OBP2 (raw fluorescence reading) (SfurOBP2; ligand concentration 20 (unit not given), replicate column 3 of 3): 13571
pIC50 (SfurOBP11; SfurOBP11, protein and 1-NPN both 2.0 µM, competitor 2-20 µM, read-out: IC50): < 4.70
Fluorescence intensity, fluorescence competitive binding assay, OBP11 (SfurOBP11; ligand concentration 2, replicate 1): 24306
Fluorescence intensity, fluorescence competitive binding assay, OBP11 (SfurOBP11; ligand concentration 2, replicate 2): 24787
Fluorescence intensity, fluorescence competitive binding assay, OBP11 (SfurOBP11; ligand concentration 2, replicate 3): 25268
Fluorescence intensity, fluorescence competitive binding assay, OBP11 (SfurOBP11; ligand concentration 4, replicate 1): 24848
Fluorescence intensity, fluorescence competitive binding assay, OBP11 (SfurOBP11; ligand concentration 4, replicate 2): 24623
Fluorescence intensity, fluorescence competitive binding assay, OBP11 (SfurOBP11; ligand concentration 4, replicate 3): 25072
Fluorescence intensity, fluorescence competitive binding assay, OBP11 (SfurOBP11; ligand concentration 6, replicate 1): 24984
Fluorescence intensity, fluorescence competitive binding assay, OBP11 (SfurOBP11; ligand concentration 6, replicate 2): 24187
Fluorescence intensity, fluorescence competitive binding assay, OBP11 (SfurOBP11; ligand concentration 6, replicate 3): 25781
Fluorescence intensity, fluorescence competitive binding assay, OBP11 (SfurOBP11; ligand concentration 8, replicate 1): 23438
Fluorescence intensity, fluorescence competitive binding assay, OBP11 (SfurOBP11; ligand concentration 8, replicate 2): 23156
Fluorescence intensity, fluorescence competitive binding assay, OBP11 (SfurOBP11; ligand concentration 8, replicate 3): 23719
Fluorescence intensity, fluorescence competitive binding assay, OBP11 (SfurOBP11; ligand concentration 10, replicate 1): 22448
Fluorescence intensity, fluorescence competitive binding assay, OBP11 (SfurOBP11; ligand concentration 10, replicate 2): 22213
Fluorescence intensity, fluorescence competitive binding assay, OBP11 (SfurOBP11; ligand concentration 10, replicate 3): 22684
Fluorescence intensity, fluorescence competitive binding assay, OBP11 (SfurOBP11; ligand concentration 12, replicate 1): 22134
Fluorescence intensity, fluorescence competitive binding assay, OBP11 (SfurOBP11; ligand concentration 12, replicate 2): 22969
Fluorescence intensity, fluorescence competitive binding assay, OBP11 (SfurOBP11; ligand concentration 12, replicate 3): 22151
Fluorescence intensity, fluorescence competitive binding assay, OBP11 (SfurOBP11; ligand concentration 14, replicate 1): 21048
Fluorescence intensity, fluorescence competitive binding assay, OBP11 (SfurOBP11; ligand concentration 14, replicate 2): 20368
Fluorescence intensity, fluorescence competitive binding assay, OBP11 (SfurOBP11; ligand concentration 14, replicate 3): 20708
Fluorescence intensity, fluorescence competitive binding assay, OBP11 (SfurOBP11; ligand concentration 16, replicate 1): 19801
Fluorescence intensity, fluorescence competitive binding assay, OBP11 (SfurOBP11; ligand concentration 16, replicate 2): 20307
Fluorescence intensity, fluorescence competitive binding assay, OBP11 (SfurOBP11; ligand concentration 16, replicate 3): 20932
Fluorescence intensity, fluorescence competitive binding assay, OBP11 (SfurOBP11; ligand concentration 18, replicate 1): 20181
Fluorescence intensity, fluorescence competitive binding assay, OBP11 (SfurOBP11; ligand concentration 18, replicate 2): 20256
Fluorescence intensity, fluorescence competitive binding assay, OBP11 (SfurOBP11; ligand concentration 18, replicate 3): 20300
Fluorescence intensity, fluorescence competitive binding assay, OBP11 (SfurOBP11; ligand concentration 20, replicate 1): 20105
Fluorescence intensity, fluorescence competitive binding assay, OBP11 (SfurOBP11; ligand concentration 20, replicate 2): 20028
Fluorescence intensity, fluorescence competitive binding assay, OBP11 (SfurOBP11; ligand concentration 20, replicate 3): 20212
behavioral response of S. furcifera (in words) (S. furcifera adults): strongly attracted
number of insects choosing hexane arm (S. furcifera adults; adults): 8
number of insects choosing volatilies arm (S. furcifera adults; adults): 21
number of insects failed (no choice) (S. furcifera adults; adults): 11
